According to PubChem BioAssay (NCI):
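Interpolation was linear, between the two tested concentrations surrounding the appropriate level; five concentrations were tested over 48 hours in 96-well plates. GI50 = concentration required for 50% inhibition of growth. TGI: concentration producing complete growth inhibition.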

Assays:
Experiment in all cases: DTP human tumour cell line panel, 48 h
[1] = test system: 786-0 renal
[2] = test system: A498 renal
[3] = test system: A549 NSCLC
[4] = test system: ACHN renal
[5] = test system: BT-549 breast
[6] = test system: CAKI-1 renal
[7] = test system: CCRF-CEM leukemia
[8] = test system: COLO 205 colon
[9] = test system: DU-145 prostate
[10] = test system: EKVX NSCLC
[11] = test system: HCC-2998 colon
[12] = test system: HCT-116 colon
[13] = test system: HCT-15 colon
[14] = test system: HL-60(TB) leukemia
[15] = test system: HOP-62 NSCLC
[16] = test system: HOP-92 NSCLC
[17] = test system: HS 578T breast
[18] = test system: IGROV1 ovarian
[19] = test system: K-562 leukemia
[20] = test system: KM12 colon
[21] = test system: LOX IMVI melanoma
[22] = test system: M14 melanoma
[23] = test system: MALME-3M melanoma
[24] = test system: MCF7 breast
[25] = test system: MDA-MB-231 breast
[26] = test system: MDA-MB-435
[27] = test system: MDA-MB-468 breast
[28] = test system: MOLT-4 leukemia
[29] = test system: NCI-H226 lung
[30] = test system: NCI-H23 lung
[31] = test system: NCI-H460 lung
[32] = test system: NCI-H522 lung
[33] = test system: OVCAR-3 ovarian
[34] = test system: OVCAR-4 ovarian
[35] = test system: OVCAR-5 ovarian
[36] = test system: OVCAR-8 ovarian
[37] = test system: PC-3 prostate
[38] = test system: RPMI-8226 leukemia
[39] = test system: RXF 393 renal
[40] = test system: SF-268 CNS
[41] = test system: SF-295 CNS
[42] = test system: SF-539 CNS
[43] = test system: SK-MEL-2 melanoma
[44] = test system: SK-MEL-28 melanoma
[45] = test system: SK-MEL-5 melanoma
[46] = test system: SK-OV-3 ovarian
[47] = test system: SN12C renal
[48] = test system: SNB-19 CNS
[49] = test system: SNB-75 CNS
[50] = test system: SR leukemia
[51] = test system: SW-620 colon
[52] = test system: TK-10 renal
[53] = test system: U251 CNS
[54] = test system: UACC-257 melanoma
[55] = test system: UACC-62 melanoma
[56] = test system: UO-31 renal

CSc1ccccc1NC(=O)c1ccc2nnn(/C(C#N)=C/c3ccccn3)c2c1
GI50 [1]: 1.82 µM
TGI [1]: 3.38 µM
GI50 [2]: 15.3 µM
TGI [2]: 28.6 µM
GI50 [3]: 10.2 µM
TGI [3]: 23.6 µM
GI50 [4]: 1.78 µM
TGI [4]: 3.17 µM
GI50 [5]: 2.32 µM
TGI [5]: 7.2 µM
GI50 [6]: 1.55 µM
TGI [6]: 2.92 µM
GI50 [7]: 3 µM
TGI [7]: > 100 µM
GI50 [8]: 2.02 µM
TGI [8]: 3.63 µM
GI50 [9]: 1.93 µM
TGI [9]: 3.64 µM
GI50 [10]: 4.59 µM
TGI [10]: 16.1 µM
GI50 [11]: 1.78 µM
TGI [11]: 3.33 µM
GI50 [12]: 1.8 µM
TGI [12]: 3.46 µM
GI50 [13]: 1.67 µM
TGI [13]: 3.54 µM
GI50 [14]: 1.9 µM
TGI [14]: 5.97 µM
GI50 [15]: 15.7 µM
TGI [15]: 30.9 µM
GI50 [16]: 1.89 µM
TGI [16]: 7.5 µM
GI50 [17]: 3.29 µM
TGI [17]: 13.3 µM
GI50 [18]: 2.07 µM
TGI [18]: 4.46 µM
GI50 [19]: 1.84 µM
TGI [19]: 6.86 µM
GI50 [20]: 3.08 µM
TGI [20]: 10.7 µM
GI50 [21]: 1.7 µM
TGI [21]: 3.19 µM
GI50 [22]: 2 µM
TGI [22]: 3.98 µM
GI50 [23]: 1.75 µM
TGI [23]: 3.29 µM
GI50 [24]: 1.69 µM
TGI [24]: 3.36 µM
GI50 [25]: 1.99 µM
TGI [25]: 4.06 µM
GI50 [26]: 2.07 µM
TGI [26]: 4.89 µM
GI50 [27]: 1.6 µM
TGI [27]: 3.32 µM
GI50 [28]: 3.29 µM
TGI [28]: 9.07 µM
GI50 [29]: 13.9 µM
TGI [29]: 32.9 µM
GI50 [30]: 1.8 µM
TGI [30]: 3.52 µM
GI50 [31]: 3.24 µM
TGI [31]: 11.1 µM
GI50 [32]: 1.56 µM
TGI [32]: 3.22 µM
GI50 [33]: 1.77 µM
TGI [33]: 3.48 µM
GI50 [34]: 4.22 µM
TGI [34]: 17.3 µM
GI50 [35]: 1.84 µM
TGI [35]: 3.91 µM
GI50 [36]: 3.34 µM
TGI [36]: 12.7 µM
GI50 [37]: 4.09 µM
TGI [37]: 16.6 µM
GI50 [38]: 3.14 µM
TGI [38]: > 100 µM
GI50 [39]: 1.5 µM
TGI [39]: 2.86 µM
GI50 [40]: 11.5 µM
TGI [40]: 28.7 µM
GI50 [41]: 15.5 µM
TGI [41]: 28.8 µM
GI50 [42]: 1.84 µM
TGI [42]: 3.54 µM
GI50 [43]: 2.25 µM
TGI [43]: 5.22 µM
GI50 [44]: 1.86 µM
TGI [44]: 3.75 µM
GI50 [45]: 3.37 µM
TGI [45]: 12.1 µM
GI50 [46]: 18.6 µM
TGI [46]: 33.8 µM
GI50 [47]: 3.87 µM
TGI [47]: 14.1 µM
GI50 [48]: 13.4 µM
TGI [48]: 26.2 µM
GI50 [49]: 10.1 µM
TGI [49]: 21.7 µM
GI50 [50]: 2.51 µM
TGI [50]: 9.46 µM
GI50 [51]: 1.86 µM
TGI [51]: 3.54 µM
GI50 [52]: 1.75 µM
TGI [52]: 3.25 µM
GI50 [53]: 3.61 µM
TGI [53]: 12.9 µM
GI50 [54]: 2.02 µM
TGI [54]: 5.3 µM
GI50 [55]: 1.83 µM
TGI [55]: 3.84 µM
GI50 [56]: 1.55 µM
TGI [56]: 2.89 µM
